# According to ChEMBL document CHEMBL5634148, “Synthesis and evaluation of novel pleuromutilin derivatives targeting the 50S ribosomal subunit for antibacterial ability” (Eur J Med Chem, 2023):
# Test system: Staphylococcus epidermidis
# Assay: Antibacterial activity against methicillin-resistant Staphylococcus epidermidis ATCC 51625 assessed as bacterial growth inhibition incubated for 18 to 24 hrs by NCCLS based assay
# Format: functional
# Conditions: time 18-24 hrs
row,Compound,MIC [µg/mL]
1,C=C[C@]1(C)C[C@@H](OC(=O)CSc2ncnc(OCCCC)n2)[C@]2(C)[C@H](C)CC[C@]3(CCC(=O)[C@H]32)[C@@H](C)[C@@H]1O,0.25
2,C=C[C@]1(C)C[C@@H](OC(=O)CSCCN(CC)CC)[C@]2(C)[C@H](C)CC[C@]3(CCC(=O)[C@H]32)[C@@H](C)[C@@H]1O [TIAMULIN],0.5
3,C=C[C@]1(C)C[C@@H](OC(=O)CSc2ncnc(NCCN)n2)[C@]2(C)[C@H](C)CC[C@]3(CCC(=O)[C@H]32)[C@@H](C)[C@@H]1O,8
4,C=C[C@]1(C)C[C@@H](OC(=O)CSc2ncnc(NCCN3CCCC3)n2)[C@]2(C)[C@H](C)CC[C@]3(CCC(=O)[C@H]32)[C@@H](C)[C@@H]1O,0.125
5,C=C[C@]1(C)C[C@@H](OC(=O)CSc2ncnc(OCCC)n2)[C@]2(C)[C@H](C)CC[C@]3(CCC(=O)[C@H]32)[C@@H](C)[C@@H]1O,16
6,C=C[C@]1(C)C[C@@H](OC(=O)CSc2ncnc(N3CCCCC3)n2)[C@]2(C)[C@H](C)CC[C@]3(CCC(=O)[C@H]32)[C@@H](C)[C@@H]1O,0.125

# Test system: Streptococcus agalactiae
# Assay: Antibacterial activity against Streptococcus agalactiae assessed as bacterial growth inhibition incubated for 18 to 24 hrs by NCCLS based assay
# Format: functional
# Conditions: time 18-24 hrs
row,Compound,MIC [µg/mL]
1,C=C[C@]1(C)C[C@@H](OC(=O)CSc2ncnc(OCCCC)n2)[C@]2(C)[C@H](C)CC[C@]3(CCC(=O)[C@H]32)[C@@H](C)[C@@H]1O,4
2,C=C[C@]1(C)C[C@@H](OC(=O)CSCCN(CC)CC)[C@]2(C)[C@H](C)CC[C@]3(CCC(=O)[C@H]32)[C@@H](C)[C@@H]1O [TIAMULIN],0.125
3,C=C[C@]1(C)C[C@@H](OC(=O)CSc2ncnc(NCCN)n2)[C@]2(C)[C@H](C)CC[C@]3(CCC(=O)[C@H]32)[C@@H](C)[C@@H]1O,2
4,C=C[C@]1(C)C[C@@H](OC(=O)CSc2ncnc(NCCN3CCCC3)n2)[C@]2(C)[C@H](C)CC[C@]3(CCC(=O)[C@H]32)[C@@H](C)[C@@H]1O,0.125
5,C=C[C@]1(C)C[C@@H](OC(=O)CSc2ncnc(OCCC)n2)[C@]2(C)[C@H](C)CC[C@]3(CCC(=O)[C@H]32)[C@@H](C)[C@@H]1O,8
6,C=C[C@]1(C)C[C@@H](OC(=O)CSc2ncnc(N3CCCCC3)n2)[C@]2(C)[C@H](C)CC[C@]3(CCC(=O)[C@H]32)[C@@H](C)[C@@H]1O,0.5

# Test system: Staphylococcus aureus
# Assay: Antibacterial activity against methicillin-resistant Staphylococcus aureus infected in neutropenic Balb/c mouse model assessed as reduction in bacterial load in lungs at 40 mg/kg, iv measured after 5 days
# Format: functional
# Conditions: time 5 day
row,Compound,Activity [log10CFU/ml]
1,C=C[C@]1(C)C[C@@H](OC(=O)CSCCN(CC)CC)[C@]2(C)[C@H](C)CC[C@]3(CCC(=O)[C@H]32)[C@@H](C)[C@@H]1O [TIAMULIN],~2

# Test system: Staphylococcus aureus
# Assay: Antibacterial activity against Staphylococcus aureus ATCC 25923 assessed as bacterial growth inhibition incubated for 18 to 24 hrs by NCCLS based assay
# Format: functional
# Conditions: time 18-24 hrs
row,Compound,MIC [µg/mL]
1,C=C[C@]1(C)C[C@@H](OC(=O)CSc2ncnc(OCCCC)n2)[C@]2(C)[C@H](C)CC[C@]3(CCC(=O)[C@H]32)[C@@H](C)[C@@H]1O,0.125
2,C=C[C@]1(C)C[C@@H](OC(=O)CSCCN(CC)CC)[C@]2(C)[C@H](C)CC[C@]3(CCC(=O)[C@H]32)[C@@H](C)[C@@H]1O [TIAMULIN],0.25
3,C=C[C@]1(C)C[C@@H](OC(=O)CSc2ncnc(NCCN)n2)[C@]2(C)[C@H](C)CC[C@]3(CCC(=O)[C@H]32)[C@@H](C)[C@@H]1O,2
4,C=C[C@]1(C)C[C@@H](OC(=O)CSc2ncnc(NCCN3CCCC3)n2)[C@]2(C)[C@H](C)CC[C@]3(CCC(=O)[C@H]32)[C@@H](C)[C@@H]1O,0.063
5,C=C[C@]1(C)C[C@@H](OC(=O)CSc2ncnc(OCCC)n2)[C@]2(C)[C@H](C)CC[C@]3(CCC(=O)[C@H]32)[C@@H](C)[C@@H]1O,16
6,C=C[C@]1(C)C[C@@H](OC(=O)CSc2ncnc(N3CCCCC3)n2)[C@]2(C)[C@H](C)CC[C@]3(CCC(=O)[C@H]32)[C@@H](C)[C@@H]1O,0.063

# Test system: Escherichia coli
# Assay: Antibacterial activity against Escherichia coli CICC 10389 assessed as bacterial growth inhibition incubated for 18 to 24 hrs by NCCLS based assay
# Format: functional
# Conditions: time 18-24 hrs
row,Compound,MIC [µg/mL]
1,C=C[C@]1(C)C[C@@H](OC(=O)CSc2ncnc(OCCCC)n2)[C@]2(C)[C@H](C)CC[C@]3(CCC(=O)[C@H]32)[C@@H](C)[C@@H]1O,≥ 64
2,C=C[C@]1(C)C[C@@H](OC(=O)CSCCN(CC)CC)[C@]2(C)[C@H](C)CC[C@]3(CCC(=O)[C@H]32)[C@@H](C)[C@@H]1O [TIAMULIN],≥ 64
3,C=C[C@]1(C)C[C@@H](OC(=O)CSc2ncnc(NCCN)n2)[C@]2(C)[C@H](C)CC[C@]3(CCC(=O)[C@H]32)[C@@H](C)[C@@H]1O,≥ 64
4,C=C[C@]1(C)C[C@@H](OC(=O)CSc2ncnc(NCCN3CCCC3)n2)[C@]2(C)[C@H](C)CC[C@]3(CCC(=O)[C@H]32)[C@@H](C)[C@@H]1O,≥ 64
5,C=C[C@]1(C)C[C@@H](OC(=O)CSc2ncnc(OCCC)n2)[C@]2(C)[C@H](C)CC[C@]3(CCC(=O)[C@H]32)[C@@H](C)[C@@H]1O,≥ 64
6,C=C[C@]1(C)C[C@@H](OC(=O)CSc2ncnc(N3CCCCC3)n2)[C@]2(C)[C@H](C)CC[C@]3(CCC(=O)[C@H]32)[C@@H](C)[C@@H]1O,≥ 64

# Test system: Enterococcus faecalis
# Assay: Antibacterial activity against Enterococcus faecalis assessed as bacterial growth inhibition incubated for 18 to 24 hrs by NCCLS based assay
# Format: functional
# Conditions: time 18-24 hrs
row,Compound,MIC [µg/mL]
1,C=C[C@]1(C)C[C@@H](OC(=O)CSc2ncnc(OCCCC)n2)[C@]2(C)[C@H](C)CC[C@]3(CCC(=O)[C@H]32)[C@@H](C)[C@@H]1O,≥ 64
2,C=C[C@]1(C)C[C@@H](OC(=O)CSCCN(CC)CC)[C@]2(C)[C@H](C)CC[C@]3(CCC(=O)[C@H]32)[C@@H](C)[C@@H]1O [TIAMULIN],16
3,C=C[C@]1(C)C[C@@H](OC(=O)CSc2ncnc(NCCN)n2)[C@]2(C)[C@H](C)CC[C@]3(CCC(=O)[C@H]32)[C@@H](C)[C@@H]1O,≥ 64
4,C=C[C@]1(C)C[C@@H](OC(=O)CSc2ncnc(NCCN3CCCC3)n2)[C@]2(C)[C@H](C)CC[C@]3(CCC(=O)[C@H]32)[C@@H](C)[C@@H]1O,32
5,C=C[C@]1(C)C[C@@H](OC(=O)CSc2ncnc(OCCC)n2)[C@]2(C)[C@H](C)CC[C@]3(CCC(=O)[C@H]32)[C@@H](C)[C@@H]1O,≥ 64
6,C=C[C@]1(C)C[C@@H](OC(=O)CSc2ncnc(N3CCCCC3)n2)[C@]2(C)[C@H](C)CC[C@]3(CCC(=O)[C@H]32)[C@@H](C)[C@@H]1O,32

# Test system: Staphylococcus aureus
# Assay: Antibacterial activity against methicillin-resistant Staphylococcus aureus infected in neutropenic Balb/c mouse model assessed as reduction in bacterial load in lungs at 15 mg/kg, iv measured after 5 days
# Format: functional
# Conditions: time 5 day
row,Compound,Activity [log10CFU/ml]
1,C=C[C@]1(C)C[C@@H](OC(=O)CSCCN(CC)CC)[C@]2(C)[C@H](C)CC[C@]3(CCC(=O)[C@H]32)[C@@H](C)[C@@H]1O [TIAMULIN],1.24

# Test system: Pasteurella multocida
# Assay: Antibacterial activity against Pasteurella multocida CVCC 1659 assessed as bacterial growth inhibition incubated for 18 to 24 hrs by NCCLS based assay
# Format: functional
# Conditions: time 18-24 hrs
row,Compound,MIC [µg/mL]
1,C=C[C@]1(C)C[C@@H](OC(=O)CSc2ncnc(OCCCC)n2)[C@]2(C)[C@H](C)CC[C@]3(CCC(=O)[C@H]32)[C@@H](C)[C@@H]1O,≥ 64
2,C=C[C@]1(C)C[C@@H](OC(=O)CSCCN(CC)CC)[C@]2(C)[C@H](C)CC[C@]3(CCC(=O)[C@H]32)[C@@H](C)[C@@H]1O [TIAMULIN],≥ 64
3,C=C[C@]1(C)C[C@@H](OC(=O)CSc2ncnc(NCCN)n2)[C@]2(C)[C@H](C)CC[C@]3(CCC(=O)[C@H]32)[C@@H](C)[C@@H]1O,≥ 64
4,C=C[C@]1(C)C[C@@H](OC(=O)CSc2ncnc(NCCN3CCCC3)n2)[C@]2(C)[C@H](C)CC[C@]3(CCC(=O)[C@H]32)[C@@H](C)[C@@H]1O,≥ 64
5,C=C[C@]1(C)C[C@@H](OC(=O)CSc2ncnc(OCCC)n2)[C@]2(C)[C@H](C)CC[C@]3(CCC(=O)[C@H]32)[C@@H](C)[C@@H]1O,≥ 64
6,C=C[C@]1(C)C[C@@H](OC(=O)CSc2ncnc(N3CCCCC3)n2)[C@]2(C)[C@H](C)CC[C@]3(CCC(=O)[C@H]32)[C@@H](C)[C@@H]1O,≥ 64

# Test system: not listed separately
# Assay: Toxicity in neutropenic Balb/c mouse model infected with methicillin-resistant Staphylococcus aureus assessed as animal survival at 40 mg/kg, iv measured for 7 days
# Format: organism-based
# Conditions: in vivo, 168 h, time 7 day
row,Compound,Activity [%]
1,C=C[C@]1(C)C[C@@H](OC(=O)CSCCN(CC)CC)[C@]2(C)[C@H](C)CC[C@]3(CCC(=O)[C@H]32)[C@@H](C)[C@@H]1O [TIAMULIN],50

# Test system: Staphylococcus aureus
# Assay: Antibacterial activity against methicillin-resistant Staphylococcus aureus BNCC 337371 assessed as bacterial growth inhibition incubated for 18 to 24 hrs by NCCLS based assay
# Format: functional
# Conditions: time 18-24 hrs
row,Compound,MIC [µg/mL]
1,C=C[C@]1(C)C[C@@H](OC(=O)CSc2ncnc(OCCCC)n2)[C@]2(C)[C@H](C)CC[C@]3(CCC(=O)[C@H]32)[C@@H](C)[C@@H]1O,0.5
2,C=C[C@]1(C)C[C@@H](OC(=O)CSCCN(CC)CC)[C@]2(C)[C@H](C)CC[C@]3(CCC(=O)[C@H]32)[C@@H](C)[C@@H]1O [TIAMULIN],0.5
3,C=C[C@]1(C)C[C@@H](OC(=O)CSc2ncnc(NCCN)n2)[C@]2(C)[C@H](C)CC[C@]3(CCC(=O)[C@H]32)[C@@H](C)[C@@H]1O,8
4,C=C[C@]1(C)C[C@@H](OC(=O)CSc2ncnc(NCCN3CCCC3)n2)[C@]2(C)[C@H](C)CC[C@]3(CCC(=O)[C@H]32)[C@@H](C)[C@@H]1O,0.125
5,C=C[C@]1(C)C[C@@H](OC(=O)CSc2ncnc(OCCC)n2)[C@]2(C)[C@H](C)CC[C@]3(CCC(=O)[C@H]32)[C@@H](C)[C@@H]1O,16
6,C=C[C@]1(C)C[C@@H](OC(=O)CSc2ncnc(N3CCCCC3)n2)[C@]2(C)[C@H](C)CC[C@]3(CCC(=O)[C@H]32)[C@@H](C)[C@@H]1O,0.125
